Measured values reported in patent US20260035359A1, “HERBICIDAL IMIDAZOLE COMPOUNDS” (SYNGENTA CROP PROTECTION AG, priority 2022, published 2026).

Tests used:
Type in all cases: in vivo
[1] = system: Echinochloa crus-gali (ECHCG); assay: Post-emergence herbicidal glasshouse test; settings: 250 g/ha, sprayed after 8 days cultivation, evaluated after 13 days
Outline: (§1)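 Glasshouse spray test, 250 g/ha unless otherwise stated, applied 1 d (pre-emergence) or 8 d (post-emergence) after sowing. Percentage damage is scored at 13 d, banded 1 (0-20%) to 5 (81-100%).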

[2] = system: Amaranthus pa/meri (AMAPA); assay: Post-emergence herbicidal glasshouse test; settings: 250 g/ha, sprayed after 8 days cultivation, evaluated after 13 days
Outline: as §1

[3] = system: Amaranthus retoflexus (AMARE); assay: Post-emergence herbicidal glasshouse test; settings: 250 g/ha, sprayed after 8 days cultivation, evaluated after 13 days
Outline: as §1

[4] = system: Ipomoea hederacea (IPOHE); assay: Post-emergence herbicidal glasshouse test; settings: 250 g/ha, sprayed after 8 days cultivation, evaluated after 13 days
Outline: as §1

Setaria faberi (SETFA) [5] = assay: Post-emergence herbicidal glasshouse test; settings: 250 g/ha, sprayed after 8 days cultivation, evaluated after 13 days
Outline: as §1

[6] = system: Echinochloa crus-gali (ECHCG); assay: Pre-emergence herbicidal glasshouse test; settings: 250 g/ha, sprayed after one day cultivation, evaluated after 13 days
Outline: as §1

[7] = system: Amaranthus pa/meri (AMAPA); assay: Pre-emergence herbicidal glasshouse test; settings: 250 g/ha, sprayed after one day cultivation, evaluated after 13 days
Outline: as §1

[8] = system: Amaranthus retoflexus (AMARE); assay: Pre-emergence herbicidal glasshouse test; settings: 250 g/ha, sprayed after one day cultivation, evaluated after 13 days
Outline: as §1

[9] = system: Ipomoea hederacea (IPOHE); assay: Pre-emergence herbicidal glasshouse test; settings: 250 g/ha, sprayed after one day cultivation, evaluated after 13 days
Outline: as §1

Setaria faberi (SETFA) [10] = assay: Pre-emergence herbicidal glasshouse test; settings: 250 g/ha, sprayed after one day cultivation, evaluated after 13 days
Outline: as §1

| Compound | percentage damage caused to the plant, ECHCG [1] | percentage damage caused to the plant, AMAPA [2] | percentage damage caused to the plant, AMARE [3] | percentage damage caused to the plant, IPOHE [4] | percentage damage caused to the plant, SETFA (Setaria faberi (SETFA) [5]) | percentage damage caused to the plant, ECHCG [6] | percentage damage caused to the plant, AMAPA [7] | percentage damage caused to the plant, AMARE [8] | percentage damage caused to the plant, IPOHE [9] | percentage damage caused to the plant, SETFA (Setaria faberi (SETFA) [10]) |
| --- | --- | --- | --- | --- | --- | --- | --- | --- | --- | --- |
| OCCCc1nc(C(F)(F)F)cn1Cc1ncc(Cl)cn1 [Compound 1.008, 3-[1-[(5-chloropyrimidin-2-yl)methyl]-4-(trifluoromethyl)imidazol-2-yl]propan-1-ol] | 1 (1=0-20%) | 1 (1=0-20%) | 1 (1=0-20%) | 1 (1=0-20%) | 1 (1=0-20%) | 2 (2=21-40%) | 1 (1=0-20%) | 1 (1=0-20%) | 1 (1=0-20%) | 1 (1=0-20%) |
| FC(F)(F)CCCc1nc(Cl)c(Cl)n1Cc1ncc(Cl)cn1 [Compound 1.004, 5-chloro-2-[[4,5-dichloro-2-(4,4,4-trifluorobutyl)imidazol-1-yl]methyl]pyrimidine] | 3 (3=41-60%) | 4 (4=61-80%) | 4 (4=61-80%) | 3 (3=41-60%) | 4 (4=61-80%) | 3 (3=41-60%) | 5 (5=81-100%) | 5 (5=81-100%) | 2 (2=21-40%) | 4 (4=61-80%) |
| CC(C)(C#N)CCc1nc(C(F)(F)F)cn1Cc1ncc(Cl)cn1 [Compound 1.062] | 1 (1=0-20%) | 2 (2=21-40%) | 2 (2=21-40%) | 3 (3=41-60%) | 2 (2=21-40%) | 4 (4=61-80%) | 5 (5=81-100%) | 5 (5=81-100%) | 5 (5=81-100%) | 4 (4=61-80%) |
| CC(C)Cc1nc(C(F)(F)F)cn1Cc1ncc(Cl)cn1 [Compound 1.021] | 1 (1=0-20%) | 3 (3=41-60%) | 3 (3=41-60%) | 3 (3=41-60%) | 1 (1=0-20%) | 1 (1=0-20%) | 5 (5=81-100%) | 3 (3=41-60%) | 4 (4=61-80%) | 1 (1=0-20%) |
| FC(F)(F)CCCc1nc(Br)cn1Cc1ncc(Cl)cn1 [Compound 1.003, 2-[[4-bromo-2-(4,4,4-trifluorobutyl)imidazol-1-yl]methyl]-5-chloro-pyrimidine] | 1 (1=0-20%) | 2 (2=21-40%) | 2 (2=21-40%) | 2 (2=21-40%) | 1 (1=0-20%) | 1 (1=0-20%) | 1 (1=0-20%) | 1 (1=0-20%) | 2 (2=21-40%) | 1 (1=0-20%) |
| FC(F)(F)CCc1nc(C(F)(F)F)cn1Cc1ncc(Cl)cn1 [Compound 1.002, 5-chloro-2-[[4-(trifluoromethyl)-2-(3,3,3-trifluoropropyl)imidazol-1-yl]methyl]pyrimidine] | 5 (5=81-100%) | 5 (5=81-100%) | 5 (5=81-100%) | 5 (5=81-100%) | 5 (5=81-100%) | 5 (5=81-100%) | 5 (5=81-100%) | 5 (5=81-100%) | 5 (5=81-100%) | 5 (5=81-100%) |
| CCOCCc1nc(C(F)(F)F)cn1Cc1ncc(Cl)cn1 [Compound 1.038] | 3 (3=41-60%) | 3 (3=41-60%) | 4 (4=61-80%) | 4 (4=61-80%) | 3 (3=41-60%) | 5 (5=81-100%) | 5 (5=81-100%) | 5 (5=81-100%) | 5 (5=81-100%) | 5 (5=81-100%) |
| CCOCc1nc(C(F)(F)F)cn1Cc1ncc(Cl)cn1 [Compound 1.039] | 1 (1=0-20%) | 2 (2=21-40%) | 2 (2=21-40%) | 2 (2=21-40%) | 1 (1=0-20%) | 1 (1=0-20%) | 3 (3=41-60%) | 4 (4=61-80%) | 2 (2=21-40%) | 2 (2=21-40%) |
| CC(O)CCc1nc(C(F)(F)F)cn1Cc1ncc(Cl)cn1 (centres unmarked) [Compound 1.082] | 1 (1=0-20%) | 3 (3=41-60%) | 2 (2=21-40%) | 1 (1=0-20%) | 1 (1=0-20%) | 1 (1=0-20%) | 2 (2=21-40%) | 4 (4=61-80%) | 1 (1=0-20%) | 2 (2=21-40%) |
| CC(=O)CCc1nc(C(F)(F)F)cn1Cc1ncc(Cl)cn1 [Compound 1.027] | 1 (1=0-20%) | 2 (2=21-40%) | 2 (2=21-40%) | 2 (2=21-40%) | 1 (1=0-20%) | 1 (1=0-20%) | 1 (1=0-20%) | 4 (4=61-80%) | 1 (1=0-20%) | 1 (1=0-20%) |
| C=CCCc1nc(C(F)(F)F)cn1Cc1ncc(Cl)cn1 [Compound 1.020, 2-[[2-but-3-enyl-4-(trifluoromethyl)imidazol-1-yl]methyl]-5-chloro-pyrimidine] | 2 (2=21-40%) | 2 (2=21-40%) | 3 (3=41-60%) | 2 (2=21-40%) | 1 (1=0-20%) | 5 (5=81-100%) | 5 (5=81-100%) | 5 (5=81-100%) | 4 (4=61-80%) | 4 (4=61-80%) |
| CSCCc1nc(C(F)(F)F)cn1Cc1ncc(Cl)cn1 [Compound 1.083] | 1 (1=0-20%) | 3 (3=41-60%) | 4 (4=61-80%) | 4 (4=61-80%) | 1 (1=0-20%) | 1 (1=0-20%) | 3 (3=41-60%) | 4 (4=61-80%) | 5 (5=81-100%) | 1 (1=0-20%) |
| N#CC1(c2nc(C(F)(F)F)cn2Cc2ncc(Cl)cn2)CC1 [Compound 1.060] | 1 (1=0-20%) | 2 (2=21-40%) | 2 (2=21-40%) | 2 (2=21-40%) | 1 (1=0-20%) | 1 (1=0-20%) | 2 (2=21-40%) | 2 (2=21-40%) | 3 (3=41-60%) | 1 (1=0-20%) |
| CC(C)(O)CCc1nc(C(F)(F)F)cn1Cc1ncc(Cl)cn1 [Compound 1.086] | 1 (1=0-20%) | 2 (2=21-40%) | 2 (2=21-40%) | 3 (3=41-60%) | 1 (1=0-20%) | 1 (1=0-20%) | 1 (1=0-20%) | 1 (1=0-20%) | 3 (3=41-60%) | 1 (1=0-20%) |
